Experimental data taken from patent US12201621B2, “Base and pharmaceutical composition containing it” (BIOTTS S.A., priority 2019, dated 2025).
Where a name gives a salt, the structure may show the parent alone. Read-outs that look alike come from different tables or passages of the source.

Tests used:
[1] = cited from earlier work
[2] = in vivo; cited from earlier work
[3] = cited from earlier work; remark: listed apart in the source
[4] = in vivo; cited from earlier work; remark: listed apart in the source
[5] = pharmacokinetics and bioavailability after intravenous and topical administration; assay type: in vivo, Goetingen mini-pigs; conditions: intravenous administration at 1 mg/kg

CCN(CC)CC(=O)Nc1c(C)cccc1C [lidocaine, Lidocaine]
extension of the effect ([1]; addition of epinephrine (5 μg/ml)): 50% | duration of effect ([1]; aerosol): 5 to 6 min | onset of effect ([1]; aerosol): 1 min | duration of anti-arrhythmic effect ([1]; endotracheal administration): 30 to 50 min | onset of anti-arrhythmic effect ([1]; endotracheal administration): 10 to 15 s | time to peak anti-arrhythmic effect ([1]; endotracheal administration): 1 to 2 min | duration of effect ([1]; epidural administration): up to 4 hours | onset of effect ([1]; epidural administration): 5 to 15 min | duration of effect ([1]; gel): 30 to 60 min | onset of effect ([1]; gel): 2 to 3 min | duration of anti-arrhythmic effect ([1]; i.v. administration): 10 to 20 min | onset of anti-arrhythmic effect ([1]; i.v. administration): 45 to 90 s | duration of effect ([1]; infiltration anesthesia): 30 to 60 min | onset of effect ([1]; infiltration anesthesia): 0.5 to 1 min | absorbed from the gastrointestinal tract [2]: 30-40% | excreted by the kidneys unchanged [2]: 10%

CCCCNc1ccc(C(=O)OCCN(C)C)cc1 [Tetracaine Hydrochloride]
Water solubility [3]: 150 mg/mL

CCCCNc1ccc(C(=O)OCCN(C)C)cc1 [tetracaine, Tetracaine]
hydrolysis in plasma [4]: rapid | clearance (printed: purified) [5]: highly purified | distribution (printed: dispersed) [5]: highly dispersed
